pIC50: −log10 of the molar value.
Assay: Measurement of ability for eliminating hydroxyl radicals (ESR spin trapping method, Fenton's reaction, DMPO)
Details: 1 mM of DMPO; DMPO-OH ESR signal; phosphate buffer pH 7.8; room temperature; read-out: Concentration of Test Substance at 50% Inhibition of Signal Intensity, IC50
Experimental: Ability of the test substances for eliminating hydroxyl radicals was measured using an ESR spin trapping method which is frequently used for the detection of hydroxyl radicals. Generation of hydroxyl radicals was carried out using a Fenton's reaction in which hydroxyl radicals are generated by a reaction of divalent iron chelated with DTPA (diethylenediamine-pentaacetic acid) with hydrogen peroxide. […] When a test substance having an eliminating action for hydroxyl radicals is present in this reaction system, the above characteristic signal is inhibited and, therefore, the ability for eliminating hydroxyl radicals can be measured using that signal inhibition as an index.
Thus, a solution of a mixture of 1 mM of ferrous sulfate and DTPA dissolved in 100 mM of a phosphate buffer (pH 7.8) was charged in a test tube. Then, 50 μl of a sample solution containing the test substance or hydantoin compound of the invention and 20 μl of 1 mM or 2 mM of DMPO were added. Finally, 75 μl of 1 mM of hydrogen peroxide solution was added to the resulting mixture to initiate the reaction. Hydrogen peroxide solution was prepared immediately before each of the experiments and the reaction was conducted at room temperature.
An ESR spectrum in this reaction system was measured by conventional means. […]

pIC50: 3.00
SMILES: CN1C(=O)NC(=O)C1O (stereo not shown) [Compound 21, 5-Hydroxy-1-methylhydantoin]

From patent US6197806A, “Eliminating agent for activated oxygen and free radicals” (Nippon Zoki Pharmaceutical Co., Ltd., priority 1995, dated 2001)
